# Data taken from patent US20260198495A1, “BINARY INSECTICIDE COMPOSITION AND USE THEREOF” (SHENYANG SINOCHEM AGROCHEMICALS R & D CO., LTD., priority 2022, published 2026).
# How the values were obtained:
# Assay type in all cases: in vivo
# [1] = tested on: adult Tetranychus cinnabarinus (Boisduval); experiment: Joint toxicity of I-72 + spirodiclofen, potted-seedling spraying, Example 25, Table 25; details: A = compound I-72, B = spirodiclofen, 72 hours
# Experimental: Test target: adult Tetranychus cinnabarinus (Boisduval), a sensitive strain reared indoors.
# (§1) Preparation of the pesticide solution: according to different test requirements, the test samples were accurately weighed respectively with an electronic analytical balance. The technical pesticides were dissolved in acetone, and then diluted with 0.1% Tween 80 water into a series of pesticide solutions with a certain concentration gradient according to the experimental design dosage.
# Experimental method: the activity of the mixture against the adult Tetranychus cinnabarinus (Boisduval) was determined by adopting the potted-seedling spraying method. First, the adult Tetranychus cinnabarinus of uniform size were transferred onto the leaves of kidney bean seedlings at the stage when the first pair of true leaves was fully expanded. After the adult mites had stabilized, the base number was counted. Then, the uniform spraying was performed with the pesticide solution in the order from low to high dose according to the experimental design, with 1.5 mL for each seedling and 3 replicates for each treatment. […]
# (§2) The treated test materials were placed in an observation room, and the temperature, humidity and illumination of the observation room could be adjusted as needed. […] Then, the co-toxicity coefficient of each ratio was calculated using the Sun Y-P method to evaluate the mixing effect, as in Example 1.
# Pyrrhalta aenescens = experiment: Joint toxicity of I-72 + fenobucarb, insect-dipping, Example 24, Table 24; details: 24 h
# Experimental: Test target: Pyrrhalta aenescens, a strain reared indoors.
# Experimental method: the insect-dipping method was adopted. Pyrrhalta aenescens of the same size were selected, put into an insect-dipping cage, and evenly […] the pesticide solution in the order from low dosage to high dosage according to the experimental design, with dipping for 10 s for each treatment. They were placed in a 9-cm-diameter Petri dish with filter paper. After natural air-drying in the shade, feed was added, with 3 replicates for each treatment. In addition, a blank control was set up.
# The treated test materials were placed in an observation room. The total number of test insects and the number of dead insects were investigated 24 hours later. The temperature, humidity and illumination of the observation room could be adjusted as needed. The test conditions, the preparation of the pesticide solution and the evaluation method were the same as those in Example 1.
# [2] = tested on: Bemisia tabaci (Gennadius) nymphs; experiment: Joint toxicity of I-72 + spiromesifen, Example 27, Table 27; details: A = compound I-72, B = spiromesifen; cotton leaf-disk spraying; 96 hours
# Experimental: Test target: Bemisia tabaci (Gennadius) nymphs, a sensitive strain reared indoors.
# as §1
# (§3) Experimental method: first, cotton leaves with neat and consistent Bemisia tabaci (Gennadius) nymphs were selected and made into leaf disks, with about 20 insects on each leaf disk. Then, they were evenly sprayed with the pesticide solution in the order from low dosage to high dosage according to the experimental design, with 1.5 mL for each leaf and 3 replicates for each treatment. In addition, a blank control was set up.
# as §2, with “needed. The number of dead and live insects was investigated 96 hours later.” for “needed.”, “effect (the same” for “effect,”, “1).” for “1.”
# [3] = tested on: 3rd-instar larvae of Pyrausta nubilalis Hubern; experiment: Synergism assay (Bliss) of I-72 + abamectin, spinosad, spinetoram, emamectin benzoate, Example 6, Table 6; details: 72 h
# Experimental: Test subject: 3rd-instar larvae of Pyrausta nubilalis Hubern, a sensitive strain reared indoors.
# Test conditions: temperature: 24-26° C., humidity: RH 60%, and illumination: L:D=14:10
# (§4) Preparation method: the test pesticides were accurately weighed respectively with an electronic analytical balance. After the two technical materials were respectively added into an appropriate amount of solvent and completely dissolved, the stock solution of the required concentration was prepared with water containing 0.1% Tween 80. The stock solutions of the two active ingredients were mixed in a certain ratio to prepare a mixed solution, which was then diluted respectively into a series of pesticide solutions with a certain concentration gradient according to the experimental design dosage.
# Experimental method: the artificial diet-pesticide film method was adopted. A standard clean 24-well culture plate was selected. 1 ml of artificial diet was added to each well. After the diet cooled and solidified, a quantitative amount of a pesticide solution was added to the culture plate using a continuous sampler, and then it was air-dried naturally in the shade. The standard test insects were introduced, with 1 insect in each well, a total of 48 insects. The treated test insects were placed in an observation room under certain conditions. The reaction of the test insects was regularly observed, and the number of dead and live insects was investigated 72 h later.
# The evaluation method adopted was the Bliss method. This method is applicable to the qualitative screening of insecticidal compositions. According to the concept of independent joint action he proposed, Bliss believes that the theoretical mortality rate P when insecticides are used in combination can be calculated by the following formula: […]
# Pm is the mortality rate (%) of the target when the first active ingredient is at a concentration of m; and Pn is the mortality rate (%) of the target when the second active ingredient is at a concentration of n.
# If the actual mortality rate of the target after the two active ingredients are mixed at a certain concentration is greater than theoretical mortality rate P, it is determined that the two active ingredients have a synergistic effect when used in combination at the set concentration, and otherwise, they have an antagonistic effect.
# [4] = tested on: 2nd-instar larvae of Chilo suppressalis (Walker); experiment: Joint toxicity of I-72 + abamectin, rice stalk spraying, Example 7, Table 7; details: resistant 2nd-instar larvae, 72 h, A = compound I-72, B = abamectin
# Experimental: Test target: 2nd-instar larvae of Chilo suppressalis (Walker). The insect source was collected from Nanchang, Jiangxi Province, and it is the 11th generation continuously cultured indoors, with a relatively high resistance level to amide pesticides such as chlorantraniliprole.
# (§5) Test conditions: temperature: 25-27° C., humidity: RH 60%, and illumination: L:D=14:10
# as §4
# Experimental method: the spraying method was adopted. […] The corrected mortality rate was calculated using the Abbott's formula, and the DPS data processing software was used for statistical analysis to calculate the toxicities (LC50 values) of the single test pesticides and the mixtures under the test ratios. […]
# [5] = tested on: adult Bemisia tabaci (Gennadius); experiment: Joint toxicity of I-72 + abamectin, seedling spraying, Example 13, Table 13; details: adults, kidney bean seedling spraying, 72 h; A = compound I-72, B = abamectin
# Excerpt: Test subject: adult Bemisia tabaci (Gennadius), a sensitive strain reared indoors.
# Experimental method: the spraying method was adopted. The kidney bean seedlings cultivated in the greenhouse were selected and evenly sprayed with the pesticide solution in the order from low dosage to high dosage according to the experimental design. After natural air-drying in the shade, a self-made glass cover was put on, and the test insects were introduced, with 20-30 insects for each treatment and 3 replicates. In addition, a blank control was set up. The number of dead and live insects was investigated 72 hours later. The corrected mortality rate was calculated using the Abbott's formula, and the DPS data processing software was used for statistical analysis to calculate the toxicities (LC50 values) of the single test pesticides and the mixtures under the test ratios.
# The test conditions, the preparation of the pesticide solution and the evaluation method were the same as those in Example 1.
# The test subject, the test method, the test conditions, the preparation of the pesticide solution and the evaluation method were the same as those in Example 12.
# [6] = tested on: 2nd-instar nymphs of Frankliniella occidentalis Pergande; experiment: Joint toxicity of I-72 + carbosulfan, leaf spraying, Example 22, Table 22; details: in Phaseolus vulgaris, 48 h
# Experimental: Test subject: 2nd-instar nymphs of Frankliniella occidentalis Pergande, a sensitive strain reared indoors.
# as §1, with “samples in Table 1” for “samples”
# as §5
# Experimental method: the spraying method was adopted. The kidney bean leaves cultivated in the greenhouse were selected, and the petioles were wrapped with moist degreased cotton and sealing film. They were evenly sprayed with the pesticide solution in the order from low dosage to high dosage according to the experimental design, placed in a 6-cm-diameter Petri dish with filter paper. After natural air-drying in the shade, the test insects were introduced, with 20 insects for each treatment and 3 replicates. In addition, a blank control was set up. […] The corrected mortality rate was calculated using the Abbott's formula, and the DPS data processing software was used for statistical analysis to calculate the toxicities (LC50 values) of the single test pesticides and the mixtures under the test ratios. […]
# [7] = tested on: Frankliniella occidentalis Pergande; experiment: Joint toxicity of I-72 + organophosphorus insecticides, leaf dipping, Example 14, Table 14; details: in Phaseolus vulgaris, foliar, 48 h
# Excerpt: Test target: Frankliniella occidentalis Pergande, a sensitive strain reared indoors.
# Experimental method: first, kidney bean leaves were selected and dipped in the prepared pesticide solution for 10 s in the order from low dosage to high dosage according to the experimental design. After natural air-drying in the shade, they were placed in a 9-cm-diameter Petri dish with filter paper, and uniform and healthy test insects were introduced, with about 20 insects for each treatment and 3 replicates for each treatment. In addition, a blank control was set up.
# [8] = tested on: 3rd-instar larvae of Chilo suppressalis (Walker); experiment: Joint toxicity of I-72 + organophosphorus insecticides, rice seedling dipping, Example 15, Table 15; details: 48 h
# Experimental: Test target: 3rd-instar larvae of Chilo suppressalis (Walker), a sensitive strain reared indoors.
# as §1
# (§6) Experimental method: first, tender and fresh rice seedlings were selected and dipped in the prepared pesticide solution for 10 s in the order from low dosage to high dosage according to the experimental design. After natural air-drying in the shade, they were cut into small sections of 5 cm, placed in a 9-cm-diameter Petri dish with filter paper, and uniform and healthy test insects were introduced, with 10 insects for each treatment and 3 replicates for each treatment. In addition, a blank control was set up.
# (§7) The treated test materials were placed in an observation room, and the temperature, humidity and illumination of the observation room could be adjusted as needed. The number of dead and live insects was investigated 48 hours later. The corrected mortality rate was calculated using the Abbott's formula, and statistical analysis was performed with the DPS data processing software to obtain the toxicity regression equation, LC50 value and 95% confidence limit of each single test pesticide and each mixture of different ratios. Then, the co-toxicity coefficient of each ratio was calculated using the Sun Y-P method to evaluate the mixing effect (the same as in Example 1).
# [9] = tested on: 3rd-instar larvae of Plutella xylostella; experiment: Joint toxicity of I-72 + chlorpyrifos, leaf-disk dipping, Example 16, Table 16; details: in Brassica oleracea, 72 h
# Experimental: Test target: 3rd-instar larvae of Plutella xylostella.
# as §1
# as §6, with “first,” for “first, tender and”, “cabbage leaves cultivated in the greenhouse” for “rice seedlings”, “selected. The cabbage leaves were made into circular leaf disks with a diameter of 3 cm using a puncher” for “selected”, “were” for “were cut into small sections of 5 cm,”
# as §2, with “effect (the same” for “effect,”, “1).” for “1.”
# [10] = tested on: Aphis gossypii Glover nymphs; experiment: Joint toxicity of I-72 + organophosphorus insecticides, cotton leaf spraying, Example 17, Table 17; details: 48 h
# Experimental: Test target: Aphis gossypii Glover nymphs, a sensitive strain reared indoors.
# as §1
# as §3, with “uniform” for “neat”, “Aphis gossypii” for “Bemisia tabaci (Gennadius) nymphs”, “selected,” for “selected and made into leaf disks,”, “leaf.” for “leaf disk.”
# as §7
# [11] = tested on: Bemisia tabaci (Gennadius) nymphs; experiment: Joint toxicity of I-72 + organophosphorus insecticides, cotton leaf-disk spraying, Example 18, Table 18; details: 96 h
# Experimental: Test target: Bemisia tabaci (Gennadius) nymphs.
# as §1, §3
# as §7, with “96” for “48”
# adult Phyllotreta spp. = experiment: Joint toxicity of I-72 + organophosphorus insecticides, cabbage seedling spraying, Example 19, Table 19; details: 72 h
# Experimental: Test target: adult Phyllotreta spp., a sensitive strain reared indoors.
# as §1
# Experimental method: first, fresh cabbage seedlings cultivated in the greenhouse were selected and evenly sprayed with the pesticide solution in the order from low dosage to high dosage according to the experimental design. After natural air-drying in the shade, they were covered with a glass cover, and uniform and healthy test insects were introduced, with 10 insects for each treatment and 3 replicates for each treatment. In addition, a blank control was set up.
# as §7, with “72” for “48”
# [12] = tested on: 3rd-instar larvae of Hyphantria cunea; experiment: Joint toxicity of I-72 + organophosphorus insecticides, poplar leaf dipping, Example 20, Table 20; details: foliar, 72 h
# Excerpt: Test target: 3rd-instar larvae of Hyphantria cunea, a sensitive strain reared indoors.
# Experimental method: first, fresh and tender poplar leaves were selected, cut into small sections of 5 cm, and dipped in the prepared pesticide solution for 10 s in the order from low dosage to high dosage according to the experimental design. After natural air-drying in the shade, they were placed in a 9-cm-diameter Petri dish with filter paper, and uniform and healthy test insects were introduced, with 10 insects for each treatment and 3 replicates for each treatment. In addition, a blank control was set up.
# The treated test materials were placed in an observation room, and the temperature, humidity and illumination of the observation room could be adjusted as needed. The number of dead and live insects was investigated 72 hours later.
# [13] = tested on: 3rd-instar larvae of Ostrinia furnacalis Guenee; experiment: Joint toxicity of I-72 + organophosphorus insecticides, corn stalk dipping, Example 21, Table 21; details: 48 h
# Experimental: Test target: 3rd-instar larvae of Ostrinia furnacalis Guenee, a sensitive strain reared indoors.
# as §1
# as §6, with “first, fresh” for “first,”, “corn stalks cultivated in the greenhouse” for “and fresh rice seedlings”, “selected, cut into small sections of 3 cm,” for “selected”, “were” for “were cut into small sections of 5 cm,”
# as §7
compound,measurement,setting,value
CCC(C)(C)C(=O)OC1=C(c2ccc(Cl)cc2Cl)C(=O)OC12CCCCC2 [spirodiclofen],LC50,[1],14.5033 µg/mL
CCC(C)c1ccccc1OC(=O)NC (stereo not drawn) [fenobucarb],LC50,Pyrrhalta aenescens,37.2 µg/mL
Cc1cc(C)c(C2=C(OC(=O)CC(C)(C)C)C3(CCCC3)OC2=O)c(C)c1 [spiromesifen],LC50,[2],10.6291 µg/mL
abamectin,Mortality rate (%),[3]; single agent 0.1 mg/L,10.42%
same,Mortality rate (%),[3]; single agent 1 mg/L,58.33%
same,Mortality rate (%),[3]; single agent 2 mg/L,75.00%
same,Mortality rate (%),[3]; single agent 5 mg/L,85.42%
same,LC50,[4],8.0355 µg/mL
same,LC50,[5],2.2263 µg/mL
"CCCCN(CCCC)SN(C)C(=O)Oc1cccc2c1OC(C)(C)C2 [carbosulfan, reference compound]",LC50,[6],43.2 µg/mL
CCOP(=S)(OCC)Oc1nc(Cl)c(Cl)cc1Cl [chlorpyrifos],LC50,[7],4.6 µg/mL
same,LC50,[8],1.96 µg/mL
same,LC50,[9],13.7 µg/mL
same,LC50,[10],4.16 µg/mL
same,LC50,[11],12.1 µg/mL
same,LC50,adult Phyllotreta spp.,40.4 µg/mL
same,LC50,[12],5.24 µg/mL
same,LC50,[13],5.18 µg/mL
